For series [1], the system named is spasmodic seizures caused by pentetrazole. In words: antipentetrazole test (protection from pentetrazole-induced seizures). Type of series: in vivo, female rats. The settings on record: Rattus norvegicus, po, read-out: ED50 (dosage which protects 50% of the experimental animals from the spasmodic seizures caused by pentetrazole). The protocol:
As mentioned earlier, the compounds of formula I have valuable pharmacological properties.
(§1) In this animal test, the compound under investigation is adminstered orally or intravenously to female rats and 30 minutes later there are administered intraperitioneally 120 mg/kg of pentetrazole, which causes emprosthotonus and tonic stretchings of the fore and/or hind limbs in unprotected animals 1-4 minutes after the injection. Ten (10) experimental animals are used per dosage of test substance. After counting the protected experimental animals, the ED50 is determined according to the […]. The ED50 is that dosage which protects 50% of the experimental animals from the spasmodic seizures caused by pentetrazole. The results which have been obtained with representative members of the class of compound defined by formula I in the experiment described previously are compiled in the following Table. Moreover, the Table contains data concerning the acute toxicity (LD50) of some of the compounds of formula I in mg/kg in the case of single oral administration to mice.

Series [2] can be described thus: acute toxicity, single oral administration to mice. The settings on record: mouse, in vivo, p.o. As for the experimental part:
as §1

[3] abbreviates: female rats, compound given 30 minutes before 120 mg/kg pentetrazole intraperitoneally, 10 animals per dosage.

Like-named read-outs stand apart in the source and are kept apart here. Where only a bound is given, the exact number is not on record here.

By ED50 is commonly meant the dose at which the effect has come halfway, by size or by number of responders. What is called LD50 is the dose expected to kill half of the subjects tested. Low values mean greater toxicity, high ones lower toxicity. Take `O=C(c1cc(-c2ccccc2)c(=O)n2c1-c1cc(Cl)ccc1CC2)N1CCC(O)CC1` [B, 1-[(10-Chloro-6,7-dihydro-4-oxo-3-phenyl-4H-benzo[a]quinolizin-1-yl)carbonyl]-4-piperidinol]: the ED50 in series [1] (setting [3]) was 5.4 mg/kg. Further, in series [2], the LD50 is over 5000 mg/kg.

With `O=C(OCc1cc(-c2ccccc2)c(=O)n2c1-c1sccc1CC2)N1CCOCC1` [C, (4,5-Dihydro-7-oxo-8-phenyl-7H-thieno[2,3-a]quinolizin-10-yl)methyl 4-morpholinecarboxylate], the ED50 in series [1] turned out to be 15.9 mg/kg.

As to `COCCNC(=O)c1cc(-c2ccccc2)c(=O)n2c1-c1cc(Cl)ccc1CC2` [Compound A, 10-Chloro-6,7-dihydro-N-(2-methoxyethyl)-4-oxo-3-phenyl-4H-benzo[a]quinolizine-1-carboxamide], the ED50 in series [1] amounted to 2.6 mg/kg. In series [2], this molecule had an LD50 of over 5000 mg/kg.

As for `CC1CN(C(=O)c2cc(-c3ccccc3)c(=O)n3c2-c2cc(Cl)ccc2CC3)CC(C)O1` (centres unmarked) [D, 4-[(6,7-Dihydro-4-oxo-3-phenyl-10-chloro-4H-benzo[a]quinolizin-1-yl)carbonyl]-2,6-dimethylmorpholine], in series [1], the ED50 was determined as 1.2 mg/kg. The LD50 in series [2] was over 5000 mg/kg.

With `O=C(c1cc(-c2ccccc2)c(=O)n2ccc3ccsc3c12)N1CCC[C@H]1CO` [E, (S)-1-[(7-oxo-8-phenyl-7H-thieno[2,3-a]quinolizin-10-yl)carbonyl]-2-pyrrolidinemethanol], the ED50 in series [1] came out at 3.5 mg/kg. In addition, in series [2], the LD50 amounted to 625 mg/kg.

For `COC[C@@H]1CCCN1C(=O)c1cc(-c2ccccc2)c(=O)n2ccc3ccsc3c12` [F, (S)-2-methoxymethyl-1-[(7-oxo-8-phenyl-7H-thieno[2,3-a]quinolizin-10-yl)carbonyl]pyrrolidine], the ED50 in series [1] turned out to be 2.8 mg/kg. The LD50 in series [2] was found to be 5000 mg/kg.

For the molecule `COC1CCN(C(=O)c2cc(-c3ccccc3)c(=O)n3ccc4ccc(Cl)cc4c23)C1` (centres unmarked) [G, 1-[(10-chloro-4-oxo-3-phenyl-4H-benzo[a]quinolizin-1-yl)carbonyl]-3-methoxypyrrolidine], the ED50 in series [1] is 0.12 mg/kg. This molecule returned an LD50 in series [2] of 2500 mg/kg.

As to `O=C(c1cc(-c2ccccc2)c(=O)n2ccc3ccc(Cl)cc3c12)N1CCC[C@H]1CO` [H, (S)-1-[(10-chloro-4-oxo-3-phenyl-4H-benzo[a]quinolizin-1-yl)carbonyl]-2-pyrrolidinemethanol], in series [1], the ED50 is 1.3 mg/kg. Besides, the LD50 in series [2] was over 3000 mg/kg.

For `C[C@@H]1CN(C(=O)c2cc(-c3ccccc3)c(=O)n3c2-c2sccc2CC3)C[C@H](C)O1` [I, cis-4-[(4,5-dihydro-7-oxo-8-phenyl-7H-thieno[2,3-a]-quinolizin-10-yl)carbonyl]-2,6-dimethylmorpholine], in series [1] (setting [3]), the ED50 worked out at 5.9 mg/kg. For the same molecule, the LD50 in series [2] is over 5000 mg/kg.

Take `COC1CCN(C(=O)c2cc(-c3ccccc3)c(=O)n3c2-c2cc(Cl)ccc2CC3)CC1` [K]: the ED50 in series [1] was found to be 0.56 mg/kg. Further, the LD50 in series [2] was over 5000 mg/kg.

With `COC1CCN(C(=O)c2cc(-c3ccccc3)c(=O)n3ccc4ccc(Cl)cc4c23)CC1` [L, 1-[(10-Chloro-3-phenyl-4-oxo-4H-benzo[a]quinolizin-1-yl)carbonyl]-4-methoxypiperidine], in series [1], the ED50 was 0.22 mg/kg. The LD50 in series [2] was over 5000 mg/kg.

On to `CCN(CCOC)C(=O)c1cc(-c2ccccc2)c(=O)n2ccc3ccsc3c12` [M, N-ethyl-N-(2-methoxyethyl)-7-oxo-8-phenyl-7H-thieno[2,3-a]quinolizine-10-carboxamide], for which the ED50 in series [1] is 5 mg/kg. Moreover, the LD50 in series [2] is 5000 mg/kg.

In the case of `COCCN(C)C(=O)c1cc(-c2ccccc2)c(=O)n2ccc3ccsc3c12` [N, N-(2-Methoxyethyl)-N-methyl-7-oxo-8-phenyl-7H-thieno[2,3-a]quinolizine-10-carboxamide], in series [1], the ED50 came to 0.97 mg/kg. The same molecule gave an LD50 in series [2] of 625 mg/kg.

As to `COC[C@H]1CCCN1C(=O)c1cc(-c2ccccc2)c(=O)n2ccc3ccsc3c12` [O, (R)-2-(methoxymethyl)-1-[(7-oxo-8-phenyl-7H-thieno[2,3-a]quinolizin-10-yl)carbonyl]pyrrolidine], in series [1], the ED50 was 0.49 mg/kg. The same molecule registered an LD50 in series [2] of 5000 mg/kg.

As for `COC1CCN(C(=O)c2cc(-c3ccccc3)c(=O)n3c2-c2cc(Cl)ccc2CC3)C1` (centres unmarked) [P, 1-[(10-Chloro-6,7-dihydro-4-oxo-3-phenyl-4H-benzo[a]quinolizin-1-yl)carbonyl]-3-methoxypyrrolidine], the ED50 in series [1] was 0.31 mg/kg. The molecule also yielded a 50% lethal dose (LD50) in series [2] of over 5000 mg/kg.

For `CCOC1CCN(C(=O)c2cc(-c3ccccc3)c(=O)n3c2-c2cc(Cl)ccc2CC3)C1` (centres unmarked) [Q, 1-[(10-Chloro-6,7-dihydro-4-oxo-3-phenyl-4H-benzo[a]quinolizin-1-yl)carbonyl]-3-ethoxypyrrolidine], the ED50 in series [1] was determined as 3.1 mg/kg. In addition, in series [2], the LD50 is over 5000 mg/kg.

As for `CO[C@@H]1CCN(C(=O)c2cc(-c3ccccc3)c(=O)n3ccc4ccsc4c23)C1` [R, (R)-3-methoxy-1-[(7-oxo-8-phenyl-7H-thieno[2,3-a]-quinolizin-10-yl)carbonyl]pyrrolidine], the ED50 in series [1] stood at 0.17 mg/kg. In series [2], the LD50 is 1250 mg/kg.

`CO[C@H]1CCN(C(=O)c2cc(-c3ccccc3)c(=O)n3ccc4ccsc4c23)C1` [S, (S)-3-methoxy-1-[(7-oxo-8-phenyl-7H-thieno[2,3-a]-quinolizin-10-yl)carbonyl]pyrrolidine]: the median effective dose (ED50) in series [1] amounted to 0.87 mg/kg. Besides, the LD50 in series [2] amounted to 5000 mg/kg.

Turning to `COC[C@@H]1CCCN1C(=O)c1cc(-c2ccccc2)c(=O)n2c1-c1cc(Cl)ccc1CC2` [T, (S)-1-[(10-Chloro-6,7-dihydro-4-oxo-3-phenyl-4H-benzo[a]quinolizin-1-yl)carbonyl]-2-(methoxymethyl)pyrrolidine], in series [1], the ED50 worked out at 3.8 mg/kg. Further, the LD50 in series [2] is over 5000 mg/kg.

For `COC1CCN(C(=O)c2cc(-c3ccccc3)c(=O)n3c2-c2sccc2CC3)C1` (centres unmarked) [U, 1-[(4,5-Dihydro-7-oxo-8-phenyl-7H-thieno[2,3-a]quinolizin-10-yl)carbonyl]-3-methoxypyrrolidine], the ED50 in series [1] worked out at 2.7 mg/kg. Besides, the LD50 in series [2] was over 5000 mg/kg.

Consider `COC1CN(C(=O)c2cc(-c3ccccc3)c(=O)n3ccc4ccsc4c23)C1` [V, 3-Methoxy-1-[(7-oxo-8-phenyl-7H-thieno[2,3-a]quinolizin-10-yl)carbonyl]azetidine], for which the ED50 in series [1] turned out to be 0.13 mg/kg. The LD50 in series [2] is over 5000 mg/kg.

As to `O=C(c1cc(-c2ccccc2)c(=O)n2ccc3ccc(Cl)cc3c12)N1CCC[C@@H]1CO` [W, (R)-1-[(10-Chloro-4-oxo-3-phenyl-4H-benzo[a]quinolizin-1-yl)carbonyl]-2-pyrrolidinemethanol], in series [1], the ED50 was found to be 0.51 mg/kg. Besides, in series [2], the LD50 was over 3000 mg/kg.

Regarding `COC[C@@H]1CCCN1C(=O)c1cc(-c2ccccc2)c(=O)n2ccc3ccc(Cl)cc3c12` [X, (S)-1-[(10-Chloro-4-oxo-3-phenyl-4H-benzo[a]quinolizin-1-yl)carbonyl]-2-(methoxymethyl)pyrrolidine], the ED50 in series [1] is 1.1 mg/kg. This molecule also had an LD50 in series [2] of 5000 mg/kg.

With `COC[C@H]1CCCN1C(=O)c1cc(-c2ccccc2)c(=O)n2ccc3ccc(Cl)cc3c12` [Y, (R)-1-[(10-Chloro-4-oxo-3-phenyl-4H-benzo[a]quinolizin-1-yl)carbonyl]-2-(methoxymethyl)pyrrolidine], in series [1], the ED50 was found to be 0.41 mg/kg. This molecule also displayed an LD50 in series [2] of 5000 mg/kg.

Source of the values: patent publication US4889848A, “Tricyclic pyridine derivatives” (Hoffmann-La Roche Inc., priority 1988, dated 1989).
